Patent publication US20250275540A1, “USE OF PROTOPORPHYRINOGEN OXIDASE” (BEIJING DABEINONG BIOTECHNOLOGY CO., LTD., priority 2022, published 2025)

Tested on: transgenic Arabidopsis thaliana T1 plants
Test: Detection of the herbicide tolerance of the transgenic Arabidopsis thaliana plants
Type: in vivo
Conditions: for The grade of pesticide damage/plant: 0 / The grade of pesticide damage/plant: 1 / The grade of pesticide damage/plant: 2 / The grade of pesticide damage/plant: 3: 7 DAT
Text: The transformed Arabidopsis thaliana T1 plants were initially selected using glufosinate herbicide. The Arabidopsis thaliana T1 plants (PPOA-01) into which the PPOA-01 nucleotide sequence was introduced, the Arabidopsis thaliana T1 plants (PPOB-01) into which the PPOB-01 nucleotide sequence was introduced, the Arabidopsis thaliana T1 plants (PPOC-01) into which the PPOC-01 nucleotide sequence was introduced, the Arabidopsis thaliana T1 plants (PPOD-01) into which the PPOD-01 nucleotide sequence was introduced, the Arabidopsis thaliana T1 plants (PPOE-01) into which the PPOE-01 nucleotide sequence was introduced, the Arabidopsis thaliana T1 plants (PPOF-01) into which the PPOF-01 nucleotide sequence was introduced, the Arabidopsis thaliana T1 plants (PPO-AP-01) into which the PPO-AP-01 nucleotide sequence was introduced, and the Arabidopsis thaliana T1 plants (control vector) into which the control vector was introduced, the wild-type Arabidopsis thaliana plants (CK) (with 24 plants being included in each genotype) (18 days after sowing) were sprayed with saflufenacil at three concentrations (25 g ai/ha (one-fold field concentration, 1×), 100 g ai/ha (four-fold field concentration, 4×), and 0 g ai/ha (water, 0×)), oxyfluorfen at three concentrations (180 g ai/ha (one-fold field concentration, 1×), 720 g ai/ha (four-fold field concentration, 4×), and 0 g ai/ha (water, 0×)), and flumioxazin at three concentrations (60 g ai/ha (one-fold field concentration, 1×), 240 g ai/ha (four-fold field concentration, 4×), and 0 g ai/ha (water, 0×) to determine the tolerance of Arabidopsis thaliana to the herbicides. After 7 days of spraying (7 DAT), the damage level of each plant caused by the herbicide was evaluated according to the average of the damage levels (%) of plants (the average of the damage levels (%) of plants=the injured leaf area/the total leaf area×100%), i.e., the grade of pesticide damage: grade 0 means that the growth status of plants is essentially consistent with those sprayed with the blank solvent (water); grade 1 means that the average of the damage levels of plants is less than 10%; grade 2 means that the average of the damage levels of plants is greater than 10%; and grade 3 means that the average of the damage levels of plants is 100%. The plants having a growth status falling within grades 0 and 1 are classified as highly resistant plants; those having a growth status falling within grade 2 are classified as poorly resistant plants; and those having a growth status falling within grade 3 are classified as non-resistant plants.

[1] = genotype Control vector, 60 g ai/ha
[2] = genotype Control vector, 240 g ai/ha
[3] = genotype PPO-AP-01, 240 g ai/ha

C#CCN1C(=O)COc2cc(F)c(N3C(=O)C4=C(CCCC4)C3=O)cc21 [flumioxazin, 2-[7-fluoro-3,4-dihydro-3-oxo-4-(2-propynyl)-2H-1,4-benzoxazin-6-yl]-4,5,6,7-tetrahydro-1H-isoindole-1,3(2H)-dione]
24 plant: The grade of pesticide damage/plant: 3 (genotype CK, 60 g ai/ha) | The grade of pesticide damage/plant: 3 (genotype CK, 240 g ai/ha) | The grade of pesticide damage/plant: 3 [1] | The grade of pesticide damage/plant: 3 [2] | The grade of pesticide damage/plant: 3 (genotype PPO-AP-01, 60 g ai/ha) | The grade of pesticide damage/plant: 3 [3] | The grade of pesticide damage/plant: 0 (genotype PPOA-01, 60 g ai/ha) | The grade of pesticide damage/plant: 0 (genotype PPOB-01, 60 g ai/ha) | The grade of pesticide damage/plant: 0 (genotype PPOC-01, 60 g ai/ha) | The grade of pesticide damage/plant: 0 (genotype PPOC-01, 240 g ai/ha) | The grade of pesticide damage/plant: 0 (genotype PPOD-01, 60 g ai/ha) | The grade of pesticide damage/plant: 0 (genotype PPOD-01, 240 g ai/ha) | The grade of pesticide damage/plant: 0 (genotype PPOF-01, 60 g ai/ha)
high-resistant tolerance: tolerance to the herbicide (in words) (genotype PPOE-01, the other plants, four-fold field concentration) | tolerance to the herbicide (in words) (genotypes PPOA-01 to PPOD-01 and PPOF-01, four-fold field concentration) | tolerance to the herbicide (in words) (genotypes PPOA-01 to PPOF-01, one-fold field concentration)
no tolerance: tolerance to the herbicide (in words) (genotype PPO-AP-01, four-fold field concentration) | tolerance to the herbicide (in words) (genotype PPO-AP-01, one-fold field concentration)
6 plant: The grade of pesticide damage/plant: 1 (genotype PPOA-01, 240 g ai/ha) | The grade of pesticide damage/plant: 1 (genotype PPOB-01, 240 g ai/ha) | The grade of pesticide damage/plant: 1 (genotype PPOF-01, 240 g ai/ha)
0 plant: The grade of pesticide damage/plant: 0 (genotype CK, 60 g ai/ha) | The grade of pesticide damage/plant: 1 (genotype CK, 60 g ai/ha) | The grade of pesticide damage/plant: 2 (genotype CK, 60 g ai/ha) | The grade of pesticide damage/plant: 0 (genotype CK, 240 g ai/ha) | The grade of pesticide damage/plant: 1 (genotype CK, 240 g ai/ha) | The grade of pesticide damage/plant: 2 (genotype CK, 240 g ai/ha) | The grade of pesticide damage/plant: 0 [1] | The grade of pesticide damage/plant: 1 [1] | The grade of pesticide damage/plant: 2 [1] | The grade of pesticide damage/plant: 0 [2] | The grade of pesticide damage/plant: 1 [2] | The grade of pesticide damage/plant: 2 [2] | The grade of pesticide damage/plant: 0 (genotype PPO-AP-01, 60 g ai/ha) | The grade of pesticide damage/plant: 1 (genotype PPO-AP-01, 60 g ai/ha) | The grade of pesticide damage/plant: 2 (genotype PPO-AP-01, 60 g ai/ha) | The grade of pesticide damage/plant: 0 [3] | The grade of pesticide damage/plant: 1 [3] | The grade of pesticide damage/plant: 2 [3] | The grade of pesticide damage/plant: 1 (genotype PPOA-01, 60 g ai/ha) | The grade of pesticide damage/plant: 2 (genotype PPOA-01, 60 g ai/ha) | The grade of pesticide damage/plant: 3 (genotype PPOA-01, 60 g ai/ha) | The grade of pesticide damage/plant: 2 (genotype PPOA-01, 240 g ai/ha) | The grade of pesticide damage/plant: 3 (genotype PPOA-01, 240 g ai/ha) | The grade of pesticide damage/plant: 1 (genotype PPOB-01, 60 g ai/ha) | The grade of pesticide damage/plant: 2 (genotype PPOB-01, 60 g ai/ha) | The grade of pesticide damage/plant: 3 (genotype PPOB-01, 60 g ai/ha) | The grade of pesticide damage/plant: 2 (genotype PPOB-01, 240 g ai/ha) | The grade of pesticide damage/plant: 3 (genotype PPOB-01, 240 g ai/ha) | The grade of pesticide damage/plant: 1 (genotype PPOC-01, 60 g ai/ha) | The grade of pesticide damage/plant: 2 (genotype PPOC-01, 60 g ai/ha) | The grade of pesticide damage/plant: 3 (genotype PPOC-01, 60 g ai/ha) | The grade of pesticide damage/plant: 1 (genotype PPOC-01, 240 g ai/ha) | The grade of pesticide damage/plant: 2 (genotype PPOC-01, 240 g ai/ha) | The grade of pesticide damage/plant: 3 (genotype PPOC-01, 240 g ai/ha) | The grade of pesticide damage/plant: 1 (genotype PPOD-01, 60 g ai/ha) | The grade of pesticide damage/plant: 2 (genotype PPOD-01, 60 g ai/ha) | The grade of pesticide damage/plant: 3 (genotype PPOD-01, 60 g ai/ha) | The grade of pesticide damage/plant: 1 (genotype PPOD-01, 240 g ai/ha) | The grade of pesticide damage/plant: 2 (genotype PPOD-01, 240 g ai/ha) | The grade of pesticide damage/plant: 3 (genotype PPOD-01, 240 g ai/ha) | The grade of pesticide damage/plant: 2 (genotype PPOE-01, 60 g ai/ha) | The grade of pesticide damage/plant: 3 (genotype PPOE-01, 60 g ai/ha) | The grade of pesticide damage/plant: 1 (genotype PPOE-01, 240 g ai/ha) | The grade of pesticide damage/plant: 2 (genotype PPOE-01, 240 g ai/ha) | The grade of pesticide damage/plant: 1 (genotype PPOF-01, 60 g ai/ha) | The grade of pesticide damage/plant: 2 (genotype PPOF-01, 60 g ai/ha) | The grade of pesticide damage/plant: 3 (genotype PPOF-01, 60 g ai/ha) | The grade of pesticide damage/plant: 2 (genotype PPOF-01, 240 g ai/ha) | The grade of pesticide damage/plant: 3 (genotype PPOF-01, 240 g ai/ha)
22 plant: The grade of pesticide damage/plant: 0 (genotype PPOE-01, 60 g ai/ha)
60 g ai/ha: effective dose distinguishing sensitive plants from plants having an average level of resistance (Arabidopsis thaliana)
2 plant: The grade of pesticide damage/plant: 1 (genotype PPOE-01, 60 g ai/ha)
18 plant: The grade of pesticide damage/plant: 0 (genotype PPOA-01, 240 g ai/ha) | The grade of pesticide damage/plant: 0 (genotype PPOB-01, 240 g ai/ha) | The grade of pesticide damage/plant: 0 (genotype PPOF-01, 240 g ai/ha)
23 plant: The grade of pesticide damage/plant: 0 (genotype PPOE-01, 240 g ai/ha)
1 plant: The grade of pesticide damage/plant: 3 (genotype PPOE-01, 240 g ai/ha) | number of non-resistant plants (genotype PPOE-01, four-fold field concentration)
